These results are taken from patent US20250381165A1, “Method of Use for Benzofuran Compounds” (Tampa Bay Research Institute, Inc., priority 2024, published 2025).

Type in all cases: cell-based, murine
Assay [1] concerns DC2.4 cells (B3Z activation). Kind of assay: Pathway inhibitor studies in DC2.4/B3Z assay. As to the method: […]. The cytotoxicity of all inhibitors was assessed using CellTiter96 Aqueous One (Promega (Madison WI, USA); cat. no. G3580).
. The cells were then washed 2× before addition of BzFβ. Cells exposed to the other inhibitors were incubated with an appropriate concentration of each inhibitor, seen in Table 1 in cDMEM at 37° C., 5% CO2. […]. Cells were then incubated for 6 h. Before B3Z addition the inhibitor and BzFβ were removed, and the cells washed with warm DPBS. If testing peptide presentation, the DC2.4 cells were pulsed with 0.5 nM […] for 1 h prior to being cocultured with B3Z.

Assay [2] concerns B16F10 cells (B3Z activation). Put plainly: B3Z activation by B16F10 (OVA or SIINFEKL). As to the method: B16F10 were plated at a density of 2.5 or 5×10^4 cells/well (100 μL/well in 96 well plates) and cultured overnight in cDMEM. The cells were washed with DPBS and then treated for 1-24 h with the indicated concentrations of BzFβ or co-treated with the indicated concentrations of BzFβ and 1.0 mg/mL OVA, suspended in complete media. Cells treated with BzFβ only were pulsed with 2 nM SIINFEKL pulsed for 1 h. The cells were then co-cultured with equal number of B3Z cells at 37° C. for 19 h.
In this experiment the activity of the dipeptide, GL, was also examined, as it has been previously reported to function as a peptide exchange factor. (Saini, et al., Dipeptides catalyze rapid peptide exchange on MHC class I molecules. Proc Natl Acad Sci USA. 2015 Jan. 6; 112(1):202-7; Saini, et al., Empty peptide-receptive MHC class I molecules for efficient detection of antigen-specific T cells. Sci Immunol. 2019 Jul. 19; 4(37):eaau9039). B16F10 were plated at a density of 2.5 or 5×10^4 cells/well (100 μL/well in 96 well plates) and cultured overnight in cDMEM. The cells were washed with DPBS and then co-treated for 24 h with 10 mM (1.88 mg/mL) of GL and 1.0 mg/mL OVA or were pulsed with 2 nM SIINFEKL for 1 h following treatment with 10 mM GL in complete media. The cells were then co-cultured with an equal number of B3Z cells at 37° C. for 19 h.

Assay [3] deals with MHC class I H-2Kb on DC2.4. Kind of assay: MHC class I recovery after acid stripping of DC2.4. As to conditions: 25 μg/mL BzFβ or 5 mM GL during recovery, 4-24 h. As to the method: To determine if BzFβ affects synthesis or cycling of the MHC class I molecules, the class I molecule/peptide complexes were stripped from the surface of DC2.4 cells using a citric acid buffer, then treated with 25 μg/mL BzFβ, 5 mM of the dipeptide GL, or 3 μg/mL BFA (see Example 4) as a negative control.
An acid wash to strip the cell surface of MHC class I was performed as described with modifications. (Montealegre, et al., Dissociation of β2-microglobulin determines the surface quality control of major histocompatibility complex class I molecules. FASEB. 2015 July; 29(7):2780-8). DC2.4 were incubated overnight at 37° C. at 1×10^5. Cells were washed for 2 min in acidic buffer [(pH 2.5) 465 mM Citric acid, 35 mM sodium citrate, in PBS with 1% v/v FBS] or neutral buffer [(pH 7.4) PBS with 1% v/v FBS]. Afterwards the pH was neutralized by the addition of cDMEM. The cells were washed with PBS and treated with BzFβ or GL in cDMEM for various times to allow for MHC class I recovery at 37° C. Cells were washed and stained with an H-2Kb-specific antibody (Invitrogen, cat. no. 12-5958-82) and analyzed by flow cytometry as described previously
MHC I recovery on the cell surface at various time points was detected by flow cytometry using the PE-labeled MHC class I H-2Kb specific antibody (AF6-88.5.5.3). […] At 6 hours >60% of the MHC class I molecules recovered, seen in FIG. 14.

Assay [4] concerns the target T1, H-2Kb/SIINFEKL complex on DC2.4 (Mus musculus, UniProt P01901).
T1 construct: DC2.4 are a C57Bl/6 lineage murine cell line and as such they express MHC class I H-2Kb and H-2Db; endogenous in cells; host or cells: DC2.4 (murine dendritic cell line, from Dr. Kenneth Rock)
Kind of assay: BFA decay experiment (SIINFEKL off-rate) on DC2.4. The following applies: 24 h pre-treatment, 1 h 30 nM SIINFEKL

Assay [5] concerns the target T2, MHCI/SIINFEKL complex on DC2.4 (Mus musculus, UniProt P01901).
T2 construct: DC2.4 are a C57Bl/6 lineage murine cell line and as such they express MHC class I H-2Kb and H-2Db; endogenous in cells; host or cells: DC2.4 (murine dendritic cell line, from Dr. Kenneth Rock)
T2 sequence (P01901 22-369): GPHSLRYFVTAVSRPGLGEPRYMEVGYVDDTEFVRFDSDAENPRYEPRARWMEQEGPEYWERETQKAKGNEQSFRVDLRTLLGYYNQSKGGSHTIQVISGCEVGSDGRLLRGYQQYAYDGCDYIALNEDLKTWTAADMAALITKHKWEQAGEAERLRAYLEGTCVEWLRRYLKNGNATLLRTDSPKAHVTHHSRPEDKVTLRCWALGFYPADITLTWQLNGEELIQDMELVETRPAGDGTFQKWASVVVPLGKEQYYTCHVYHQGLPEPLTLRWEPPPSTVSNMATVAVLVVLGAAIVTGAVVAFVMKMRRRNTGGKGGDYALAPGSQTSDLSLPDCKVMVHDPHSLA
T2 sequence (P01887 21-119 partner): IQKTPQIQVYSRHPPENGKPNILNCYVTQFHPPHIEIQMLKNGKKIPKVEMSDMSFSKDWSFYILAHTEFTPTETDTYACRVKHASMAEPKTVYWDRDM
Kind of assay: Displacement of SIINFEKL from DC2.4 after peptide pulse.

Assay [6] concerns DC2.4 cells presenting SIINFEKL to B3Z CD8+ T cell hybridoma. Put plainly: B3Z activation by SIINFEKL-pulsed DC2.4 (CPRG β-gal assay). As to conditions: doses up to 50 μg/mL (265 μM), 0.5 nM SIINFEKL
As to the method:
DC2.4 cells (2.5×10^4 cells/well) were seeded at 100 μL/well in 96 well tissue culture white sided/white bottom plate and incubated overnight to allow for cell adherence. 37° C. in an atmosphere containing 5% CO2 and 95% humidity. Following pre-treatment of the DC2.4 cells (1-24 h) with escalating doses of the test molecules, the cells were washed, pulsed with 0.5 nM of the MHC class I H-2Kb peptide, SIINFEKL, for 1 h, and then co-cultured with the CD8+ T cell hybridoma, B3Z.
The level of B3Z cell activation and the effects of the various test molecules on B3Z activation were quantified in cell lysates using the β-gal chromogenic substrate, CPRG. The media was removed and 100 μL of 250 μM CPRG reconstituted in the lysis buffer (1×DPBS, 0.2% v/v saponin, 20 mM magnesium chloride) was added directly to each well. Cells were maintained at 37° C. prior to measurement. The absorbance at 560 nm (700 nm for background) was intermittently monitored using a BioTek Synergy HTX multimode microplate reader (Winooski, VT) to detect β-gal activity. CPRG lysis buffer and B3Z cells only served as the negative controls. All treatments were performed in triplicate and all experiments were repeated a minimum of three times.
Activation of B3Z T cell hybridoma cells was assessed following their exposure to various MHC class I H-2K^b positive cell lines presenting the SIINFEKL peptide. B3Z are a CD8+ SIINFEKL peptide specific T-cell hybridoma expressing a beta-galactosidase (β-gal) reporter gene driven by NF-AT elements on the interleukin 2 (IL-2) promoter. […] Activation of B3Z leads to production of β-gal whose presence can be quantified using the optimized detection assay described by Jendresen et al. (Jendresen, et al., An improved CPRG colorimetric ligand-receptor signal transduction assay based on beta-galactosidase activity in mammalian BWZ-reporter cells. J Pharmacol Toxicol Methods. 2018 March-April; 90:67-75).
To stimulate β-gal production in the B3Z, the H-2Kb murine cell lines, DC2.4, B16F10, and E.G7-OVA, or freshly isolated murine splenocytes, were plated at a density of 2.5 or 5×10^4 cells/well (100 μL/well in 96 well plates) and cultured overnight at 37° C. in an atmosphere containing 5% CO2 and 95% humidity. The cells were washed with DPBS and then treated for 1-24 h with the indicated concentrations of BzFβ suspended in complete media. Vehicle controls were always included. […]
To detect activation of the B3Z cells, the media was removed and 100 μL of 250 µM CPRG reconstituted in the lysis buffer (1×DPBS, 0.2% v/v saponin, 20 mM magnesium chloride) was added directly to each well. […] The absorbance at 560 nm (700 nm for background) was intermittently monitored using a BioTek Synergy HTX multimode microplate reader (Winooski, VT) to detect β-gal activity. […]

Where [7] appears, read: DC2.4 pulsed with SIINFEKL, data not shown.
Setting [8] is: DC2.4 pulsed with […], data not shown.

Each structure is given as a SMILES string. Like-named read-outs stand apart in the source and are kept apart here.

Take `Cn1cnc(N)c2ncnc1-2` [3-methyladenine, 3-Methyladenine]: the “inhibition of BzFβ enhancement of B3Z activation” value (from here on “inhibition”) in assay [1] (setting [7]) is “failed to inhibit”.

`C[C@H]1CCC/C=C/[C@@H]2C[C@H](O)C[C@H]2[C@H](O)/C=C/C(=O)O1` [BFA, Brefeldin A]: the “effect of BFA on B3Z activation with OVA as antigen source” value in assay [1] (DC2.4, 3 μg/mL BFA 1 h pretreatment, 0.5 mg/mL OVA) is on record as “significantly suppressed”.

On to `CO/C1=C\C(C)=C\[C@@H](C)[C@@H](O)[C@@H](C)C/C(C)=C/C=C/[C@H](OC)[C@@H]([C@@H](C)[C@@H](O)[C@H](C)[C@@]2(O)C[C@@H](O)[C@H](C)[C@@H](C(C)C)O2)OC1=O` [Bafilomycin A1], for which, in assay [1] (setting [8]), the “inhibition” value is recorded as “failed to inhibit”.

With `CC(C)CC(NC(=O)CN)C(=O)O` (stereo not drawn) [GL, Glycine-leucine dipeptide, reference compound], in assay [2] (co-treatment with 1 mg/mL OVA, GL at 10 mM), the “B3Z activation by B16F10, OVA” value is listed as “no effect on the uptake or processing of OVA”. Besides, the “B3Z activation by B16F10, SIINFEKL” value in assay [2] (pre-treatment, 1 h pulse 2 nM SIINFEKL, BzFβ 25, 50 μg, GL 10 mM) is recorded as “significantly enhance B3Z activation”. For the same compound, the “MHC class I recovery after acid stripping” value in assay [3] was “no increase in MHC class I production”. The “decay rate of SIINFEKL / stability of H-2Kb/SIINFEKL complex” value in assay [4] is “no increase in overall stability”. The “MHCI/SIINFEKL complex staining versus untreated cells” value in assay [5] (5 mM GL after 1 h pulse 30 nM SIINFEKL, p=0.0027) is reported as “significantly reduced”. The “concentration of dipeptides required relative to BzFβ” value in assay [5] (displace or enhance peptide binding) is listed as 3 fold.

In the case of `CCN(CC)CCCC(C)Nc1ccnc2cc(Cl)ccc12` (stereo not drawn) [chloroquine, Chloroquine], in assay [1], the “inhibition” value is given as “failed to inhibit”.

On to `C[C@@H]1C[C@@H]([C@H](O)CC2CC(=O)NC(=O)C2)C(=O)[C@@H](C)C1` [cycloheximide, Cycloheximide], for which the “inhibition” value in assay [1] (setting [8]) was “failed to inhibit”.

For `C=C1[C@@H](C)[C@H]2[C@H](Cc3ccccc3)NC(=O)[C@]23[C@H](OC(C)=O)/C=C/[C@@](C)(O)C(=O)[C@@H](C)C/C=C/[C@H]3[C@@H]1O` [cytochalasin D, Cytochalasin D], the “inhibition” value in assay [1] (setting [8]) was “failed to inhibit”.

As to `COc1cccc2c1C(=O)c1c(O)c3c(c(O)c1C2=O)C[C@@](O)(C(=O)CO)C[C@@H]3O[C@H]1C[C@H](N)[C@H](O)[C@H](C)O1` [doxorubicin, Doxorubicin], the “inhibition” value in assay [1] (setting [7]) is reported as “failed to inhibit”.

With `O=C(O)C=Cc1ccc2c(c1)CCO2` [molecule #2, 3-(2,3-dihydro-1-benzofuran-5-yl)acrylic acid], in assay [6], the “B3Z activation by analog-treated DC2.4” value was “failed to evoke activation of the B3Z response”.

As for `O=C(O)/C=C/c1ccc2c(c1)OCO2` [molecule #4, (2E)-3-(1,3-benzodioxol-5yl)acrylic acid], the “B3Z activation by analog-treated DC2.4” value in assay [6] is on record as “failed to evoke activation of the B3Z response”.
